Where two headings read alike, the source gives them in different places.
Tests used:
Assay type in all cases: in vivo
Thrips tabaci = Thrips tabaci (onion thrips), sunflower leaf disc test; conditions: foliar, 144 h, read-out: control (mortality)
Protocol: Thrips tabaci (Onion Thrips):
(§1) Sunflower leaf discs were placed on agar in 24-well microtiter plates and sprayed with aqueous test solutions prepared from 10′000 ppm DMSO stock solutions. After drying the leaf discs were infested with a thrips population of mixed ages. The samples were assessed for mortality 6 days after infestation.

Tetranychus urticae = Tetranychus urticae (two-spotted spider mite), bean leaf disc test; conditions: foliar, 192 h, read-out: control (mortality on mixed population, mobile stages)
Protocol: Tetranychus urticae (Two-Spotted Spider Mite):
as §1, with “Bean” for “Sunflower”, “discs” for “discs were placed”, “were” for “and”, “mite” for “thrips”, “on mixed population (mobile stages) 8” for “6”

Plutella xylostella = Plutella xylostella (diamond back moth), artificial diet test; conditions: 120 h, read-out: control (mortality and growth inhibition)
Protocol: Plutella xylostella (Diamond Back Moth):
(§2) 24-well microtiter plates with artificial diet were treated with aqueous test solutions prepared from 10′000 ppm DMSO stock solutions by pipetting. After drying, the plates were infested with L2 larvae (10 to 15 per well). The samples were assessed for mortality and growth inhibition in comparison to untreated samples 5 days after infestation.

Euschistus heros = Euschistus heros (neotropical brown stink bug), soybean leaf test; conditions: 120 h, read-out: effect in at least one of the two categories (mortality or growth inhibition); for percent effect (mortality or growth inhibition) at 200 ppm: application rate 200 ppm, N2 nymphs, 5 days after infestation
Protocol: Euschistus heros (Neotropical Brown Stink Bug):
Soybean leaves on agar in 24-well microtiter plates were sprayed with aqueous test solutions prepared from 10′000 ppm DMSO stock solutions. After drying the leaves were infested with N2 nymphs. The samples were assessed for mortality and growth inhibition in comparison to untreated samples 5 days after infestation.

Myzus persicae [1] = experiment: Myzus persicae (green peach aphid), sucrose solution / Parafilm test; conditions: 120 h
From the text: (§3) Myzus persicae (Green Peach Aphid):
Test compounds were applied by pipette into 24 well plates and mixed with Sucrose solution. Application rate: 12.5 ppm. The plates were closed with a stretched parafilm. A plastic stencil with 24 holes is placed onto the plate and infested pea seedlings were placed directly on the Parafilm. The infested plate is closed with a gel blotting paper and another plastic stencil and then turned upside down. 5 days after infestation the samples were checked on mortality.

Spodoptera littoralis = Spodoptera littoralis (Egyptian cotton leaf worm), cotton leaf disc spray test; conditions: foliar, 72 h, read-out: control (at least one of mortality, anti-feedant effect, growth inhibition); for percent control (mortality, anti-feedant effect or growth inhibition) at 200 ppm: application rate 200 ppm, L1 larvae, 3 days after infestation
Protocol: Spodoptera littoralis (Egyptian Cotton Leaf Worm)
Cotton leaf discs were placed on agar in 24-well microtiter plates and sprayed with aqueous test solutions prepared from 10′000 ppm DMSO stock solutions. After drying the leaf discs were infested with five L1 larvae. The samples were assessed for mortality, anti-feedant effect, and growth inhibition in comparison to untreated samples 3 days after infestation. Control of Spodoptera littoralis by a test sample is when at least one of mortality, anti-feedant effect, and growth inhibition is higher than the untreated sample.

Diabrotica balteata = Diabrotica balteata (corn root worm), maize sprout test; conditions: 96 h, read-out: control (mortality and growth inhibition)
Protocol: Diabrotica balteata, (Corn Root Worm)
as §2, with “Maize sprouts, placed on an agar layer in 24-well” for “24-well”, “plates” for “plates with artificial diet”, “spraying.” for “pipetting.”, “(6” for “(10”, “10” for “15”, “4” for “5”

Myzus persicae [2] = experiment: Myzus persicae (green peach aphid), sunflower leaf disc spray test; conditions: foliar, 144 h
Protocol: as §3
Sunflower leaf discs were placed on agar in a 24-well microtiter plate and sprayed with test solutions at an application rate of 200 ppm. After drying, the leaf discs were infested with an aphid population of mixed ages. After an incubation period of 6 DAT, samples were checked for mortality. The following compounds gave at least 80% mortality of Myzus persicae: compounds 1,2, 3, 4, 5, 6, 11, 12, 15, 17, 18, 19, 20, 23, 24, 25, 26, 27, 30, 32, 33, 34 35, 41, 43, 44, 47, 50, 55, 58, 59, 60, 61, 62, 63, 64, 65 and 66.

[3] = application rate 200 ppm, mixed ages, 6 days after infestation
[4] = application rate 200 ppm, 8 days after infestation
[5] = application rate 200 ppm, L2 larvae, 5 days after infestation
[6] = test rate of 12 ppm, sucrose solution, 5 days after infestation, read-out: mortality
[7] = application rate 200 ppm, L2 larvae, 4 days after infestation
[8] = application rate 200 ppm, mixed ages, 6 DAT, read-out: mortality

CN(C(=O)c1cc(-c2cnn(-c3c(C(F)(F)F)c(OC(F)(F)C(F)C(F)(F)F)nn3C)c2)ccc1Cl)C1(C#N)CC1 (centres unmarked) [compound 55]
≥ 80%: mortality at 200 ppm (Thrips tabaci; [3]) | mortality at 200 ppm (Tetranychus urticae; [4]) | mortality at 200 ppm (Plutella xylostella; [5]) | percent effect (mortality or growth inhibition) at 200 ppm (Euschistus heros) | mortality at 12 ppm (Myzus persicae [1]; [6]) | percent control (mortality, anti-feedant effect or growth inhibition) at 200 ppm (Spodoptera littoralis) | mortality at 200 ppm (Diabrotica balteata; [7]) | mortality at 200 ppm (Myzus persicae [2]; [8])

Cn1nc(OC(F)(F)C(F)OC(F)(F)C(F)(F)C(F)(F)F)c(C(F)(F)F)c1-n1cc(-c2ccc(Cl)c(C(=O)NC3(C#N)CC3)c2)cn1 (centres unmarked) [compound 17]
≥ 80%: mortality at 200 ppm (Thrips tabaci) | mortality at 200 ppm (Tetranychus urticae) | mortality at 200 ppm (Plutella xylostella) | percent control (mortality or growth inhibition) at 200 ppm (Euschistus heros) | mortality at 12 ppm (Myzus persicae [1]) | mortality at 200 ppm (Spodoptera littoralis) | mortality at 200 ppm (Diabrotica balteata) | mortality at 200 ppm (Myzus persicae [2])

Cc1ccc(-c2cnn(-c3c(C(F)(F)F)c(OC(F)(F)C(F)C(F)(F)F)nn3C)c2)cc1C(=O)NC1CC1 (centres unmarked) [compound 58]
≥ 80%: mortality at 200 ppm (Thrips tabaci; [3]) | mortality at 200 ppm (Tetranychus urticae; [4]) | mortality at 200 ppm (Plutella xylostella; [5]) | mortality at 12 ppm (Myzus persicae [1]; [6]) | percent control (mortality, anti-feedant effect or growth inhibition) at 200 ppm (Spodoptera littoralis) | mortality at 200 ppm (Diabrotica balteata; [7]) | mortality at 200 ppm (Myzus persicae [2]; [8])

Cn1nc(OCC(F)(F)C(F)(F)C(F)(F)C(F)F)c(C(F)(F)F)c1-n1cc(-c2ccc(Cl)c(C(=O)NC3(C#N)CC3)c2)cn1 [compound 20]
≥ 80%: mortality at 200 ppm (Thrips tabaci) | mortality at 200 ppm (Tetranychus urticae) | mortality at 200 ppm (Plutella xylostella) | percent control (mortality or growth inhibition) at 200 ppm (Euschistus heros) | mortality at 12 ppm (Myzus persicae [1]) | mortality at 200 ppm (Spodoptera littoralis) | mortality at 200 ppm (Diabrotica balteata) | mortality at 200 ppm (Myzus persicae [2])

Cn1nc(OC(F)(F)C(F)OC(F)(F)F)c(C(F)(F)F)c1-n1cc(-c2cnc(Cl)c(C(=O)NC3(C#N)CC3)c2)cn1 (centres unmarked) [compound 61]
≥ 80%: mortality at 200 ppm (Thrips tabaci; [3]) | mortality at 200 ppm (Tetranychus urticae; [4]) | mortality at 200 ppm (Plutella xylostella; [5]) | percent effect (mortality or growth inhibition) at 200 ppm (Euschistus heros) | percent control (mortality, anti-feedant effect or growth inhibition) at 200 ppm (Spodoptera littoralis) | mortality at 200 ppm (Diabrotica balteata; [7]) | mortality at 200 ppm (Myzus persicae [2]; [8])

Cn1nc(OCCOC(F)(F)F)c(C(F)(F)F)c1-n1cc(-c2ccc(Cl)c(C(=O)NC3CC3)c2)cn1 [compound 34]
≥ 80%: mortality at 200 ppm (Tetranychus urticae; [4]) | mortality at 200 ppm (Plutella xylostella; [5]) | percent effect (mortality or growth inhibition) at 200 ppm (Euschistus heros) | mortality at 12 ppm (Myzus persicae [1]; [6]) | percent control (mortality, anti-feedant effect or growth inhibition) at 200 ppm (Spodoptera littoralis) | mortality at 200 ppm (Diabrotica balteata; [7]) | mortality at 200 ppm (Myzus persicae [2]; [8])

Cn1nc(OC(F)(F)C(F)Cl)c(C(F)(F)F)c1-n1cc(-c2ccc(Cl)c(C(=O)NC3(C#N)CC3)c2)cn1 (centres unmarked) [compound 44]
≥ 80%: mortality at 200 ppm (Thrips tabaci; [3]) | mortality at 200 ppm (Tetranychus urticae; [4]) | percent effect (mortality or growth inhibition) at 200 ppm (Euschistus heros) | mortality at 12 ppm (Myzus persicae [1]; [6]) | mortality at 200 ppm (Diabrotica balteata; [7]) | mortality at 200 ppm (Myzus persicae [2]; [8])

Cn1nc(OC(F)(F)C(F)Br)c(C(F)(F)F)c1-n1cc(-c2ccc(Cl)c(C(=O)NC3CC3)c2)cn1 (centres unmarked) [compound 43]
≥ 80%: mortality at 200 ppm (Thrips tabaci; [3]) | mortality at 200 ppm (Tetranychus urticae; [4]) | mortality at 200 ppm (Plutella xylostella; [5]) | percent effect (mortality or growth inhibition) at 200 ppm (Euschistus heros) | percent control (mortality, anti-feedant effect or growth inhibition) at 200 ppm (Spodoptera littoralis) | mortality at 200 ppm (Diabrotica balteata; [7]) | mortality at 200 ppm (Myzus persicae [2]; [8])

COc1nn(C)c(-n2cc(-c3ccc(Cl)c(C(=O)NC4(C#N)CC4)c3)cn2)c1C(F)(F)F [compound 5]
≥ 80%: mortality at 12 ppm (Myzus persicae [1]; [6]) | mortality at 200 ppm (Myzus persicae [2]; [8])

Cn1nc(OCC(F)F)c(C(F)(F)F)c1-n1cc(-c2ccc(Cl)c(C(=O)NC3CC3)c2)cn1 [compound 24]
≥ 80%: mortality at 200 ppm (Tetranychus urticae; [4]) | mortality at 200 ppm (Plutella xylostella; [5]) | percent effect (mortality or growth inhibition) at 200 ppm (Euschistus heros) | mortality at 12 ppm (Myzus persicae [1]; [6]) | percent control (mortality, anti-feedant effect or growth inhibition) at 200 ppm (Spodoptera littoralis) | mortality at 200 ppm (Diabrotica balteata; [7]) | mortality at 200 ppm (Myzus persicae [2]; [8])

Cn1nc(OC(F)(F)C(F)OC(F)(F)F)c(C(F)(F)F)c1-n1cc(-c2cnc(Cl)c(C(=O)NC3CC3)c2)cn1 (centres unmarked) [compound 62]
≥ 80%: mortality at 200 ppm (Thrips tabaci; [3]) | mortality at 200 ppm (Tetranychus urticae; [4]) | mortality at 200 ppm (Plutella xylostella; [5]) | percent effect (mortality or growth inhibition) at 200 ppm (Euschistus heros) | percent control (mortality, anti-feedant effect or growth inhibition) at 200 ppm (Spodoptera littoralis) | mortality at 200 ppm (Diabrotica balteata; [7]) | mortality at 200 ppm (Myzus persicae [2]; [8])

Cn1nc(SC(F)(F)F)c(Br)c1-n1cc(-c2ccc(Cl)c(C(=O)NC3CC3)c2)cn1 [compound 63]
≥ 80%: mortality at 200 ppm (Thrips tabaci; [3]) | mortality at 200 ppm (Tetranychus urticae; [4]) | mortality at 200 ppm (Plutella xylostella; [5]) | percent effect (mortality or growth inhibition) at 200 ppm (Euschistus heros) | percent control (mortality, anti-feedant effect or growth inhibition) at 200 ppm (Spodoptera littoralis) | mortality at 200 ppm (Diabrotica balteata; [7]) | mortality at 200 ppm (Myzus persicae [2]; [8])

Cn1nc(SC(F)(F)C(F)(F)C(F)(F)F)c(Br)c1-n1cc(-c2ccc(Cl)c(C(=O)NC3CC3)c2)cn1 [compound 64]
≥ 80%: mortality at 200 ppm (Thrips tabaci) | mortality at 200 ppm (Tetranychus urticae) | mortality at 200 ppm (Plutella xylostella) | percent control (mortality or growth inhibition) at 200 ppm (Euschistus heros) | mortality at 200 ppm (Spodoptera littoralis) | mortality at 200 ppm (Diabrotica balteata) | mortality at 200 ppm (Myzus persicae [2])

Cn1nc(OC(F)(F)CBr)c(C(F)(F)F)c1-n1cc(-c2ccc(Cl)c(C(=O)NC3(C#N)CC3)c2)cn1 [compound 41]
≥ 80%: mortality at 200 ppm (Thrips tabaci; [3]) | mortality at 200 ppm (Tetranychus urticae; [4]) | mortality at 200 ppm (Plutella xylostella; [5]) | percent effect (mortality or growth inhibition) at 200 ppm (Euschistus heros) | percent control (mortality, anti-feedant effect or growth inhibition) at 200 ppm (Spodoptera littoralis) | mortality at 200 ppm (Diabrotica balteata; [7]) | mortality at 200 ppm (Myzus persicae [2]; [8])

Cn1nc(O/C(F)=C/C(F)(F)F)c(C(F)(F)F)c1-n1cc(-c2ccc(Cl)c(C(=O)NC3(C#N)CC3)c2)cn1 [compound 48]
≥ 80%: mortality at 200 ppm (Thrips tabaci; [3]) | mortality at 200 ppm (Tetranychus urticae; [4]) | mortality at 200 ppm (Plutella xylostella; [5]) | percent effect (mortality or growth inhibition) at 200 ppm (Euschistus heros) | mortality at 12 ppm (Myzus persicae [1]; [6]) | percent control (mortality, anti-feedant effect or growth inhibition) at 200 ppm (Spodoptera littoralis) | mortality at 200 ppm (Diabrotica balteata; [7])

Cn1nc(OC(F)F)c(C(F)(F)F)c1-n1cc(-c2ccc(Cl)c(C(=O)NC3(C#N)CC3)c2)cn1 [compound 1]
≥ 80%: mortality at 200 ppm (Plutella xylostella; [5]) | percent effect (mortality or growth inhibition) at 200 ppm (Euschistus heros) | mortality at 12 ppm (Myzus persicae [1]; [6]) | percent control (mortality, anti-feedant effect or growth inhibition) at 200 ppm (Spodoptera littoralis) | mortality at 200 ppm (Diabrotica balteata; [7]) | mortality at 200 ppm (Myzus persicae [2]; [8])

Cn1nc(OC(F)(F)C(F)C(F)(F)F)c(C(F)(F)F)c1-n1cc(-c2cnc(Cl)c(C(=O)NC3CC3)c2)cn1 (centres unmarked) [compound 66]
≥ 80%: mortality at 200 ppm (Thrips tabaci; [3]) | mortality at 200 ppm (Tetranychus urticae; [4]) | mortality at 200 ppm (Plutella xylostella; [5]) | percent effect (mortality or growth inhibition) at 200 ppm (Euschistus heros) | mortality at 200 ppm (Myzus persicae [2]; [8])

Cn1nc(OC(F)(F)C(F)C(F)(F)F)c(C(F)(F)F)c1-n1cc(-c2cnc(Cl)c(C(=O)NC3(C#N)CC3)c2)cn1 (centres unmarked) [compound 65]
≥ 80%: mortality at 200 ppm (Thrips tabaci; [3]) | mortality at 200 ppm (Tetranychus urticae; [4]) | mortality at 200 ppm (Plutella xylostella; [5]) | percent effect (mortality or growth inhibition) at 200 ppm (Euschistus heros) | mortality at 200 ppm (Diabrotica balteata; [7]) | mortality at 200 ppm (Myzus persicae [2]; [8])

— patent US10750742B2, “Pesticidally active pyrazole derivatives” (SYNGENTA PARTICIPATIONS AG, priority 2015, dated 2020)
